Patent publication US10918734B2 (Immunomedics, Inc., priority 2017, dated 2021)
Like-named read-outs stand apart in the source and are kept apart here.

Columns and labels:
p53 = p53 expression in tumor cells; assay type: cell-based, human; details: BxPC-3 and Calu-3
Text: (§1) SN-38 is known to activate several signaling pathways in cells, leading to apoptosis (e.g., Cusack et al., 2001, Cancer Res 61:3535-40; Liu et al. 2009, Cancer Lett 274:47-53; Lagadec et al., 2008, Br J Cancer 98:335-44). Our initial studies examined the expression of 2 proteins involved in early signaling events (p21^Waf1/Cip1 and p53) and 1 late apoptotic event [cleavage of poly-ADP-ribose polymerase (PARP)] in vitro (not shown).
(§2) In addition, p53 expression in cells exposed to the ADC was higher in both cell lines compared to SN-38 (not shown). […] In terms of later apoptotic events, cleavage of PARP was evident in both cell lines when incubated with either SN-38 or the conjugate (not shown). […] The higher degree of cleavage with free SN-38 over the ADC was consistent with the cytotoxicity findings.

[1] = test system: poly-ADP-ribose polymerase (PARP); assay: Cleavage of PARP in tumor cells; assay type: cell-based, human; details: BxPC-3 and Calu-3
Text: as §1, §2

[2] = test system: human SCLC tumors (DMS 53); assay type: in vivo, C.B.-17 SCID mice
Method: Female C.B.-17 SCID mice were injected s.c. with a tumor suspension made from of DMS 53 stock tumors (20% w/v) plus cells harvested from tissue culture (5×10^6 cells per mouse) mixed 1:1 with matrigel. […] All were administered twice weekly for 4 weeks. Two groups received only chemotherapy of either cisplatinum (5 mg/kg i.p.) or carboplatin (50 mg/kg i.p.) weekly for 4 weeks. […] A final untreated control group of mice received saline (100 μL i.p. twice weekly×4 wks). Tumors were measured and mice weighed twice weekly.

[3] = test system: SK-MES-1 human squamous cell lung tumors; assay: SK-MES-1 xenograft therapy; design: species or system nude mice; details: mouse, in vivo
MDA-MB-231 tumors = assay: MDA-MB-231 parental tumor therapy; assay type: in vivo, mice
Method: (§3) Rad51 and DNA-breaks (g-H2A.X) were determined by Western blot. […] Tumors were measured and mice weighed twice weekly. Study survival endpoint was tumor progression to >1.0 cm^3.

C13 tumors = assay: MDA-MB-231 Trop-2 transfectant C13 tumor therapy; assay type: in vivo, mice; details: for median survival time (MST): IMMU-132 0.5 mg twice wkly × 4, irinotecan 40 mg/kg q2dx5
Method: as §3

C39 tumors = assay: MDA-MB-231 Trop-2 transfectant C39 tumor therapy; assay type: in vivo, mice; details: for median survival time (MST): IMMU-132 0.5 mg twice wkly × 4, irinotecan 40 mg/kg q2dx5
Method: as §3

[4] = test system: SK-MES-1 squamous cell lung carcinoma; assay: SK-MES-1 antitumor effect (FIG. 18); assay type: in vivo
Rad51 [5] = assay: Rad51 expression in tumors taken from treated mice; assay type: in vivo; details: parental, C13 and C39 tumors
[6] = plasma esterase; cited from earlier work
advanced GI cancers = assay: Phase I/II trial of IMMU-132 in advanced GI cancers: best response by RECIST, TTP; assay type: in vivo, human
Method: Patients with metastatic cancers were enrolled after failing standard therapy, starting at a dose of 8.0 mg/kg given on days 1 and 8 of a 3-week cycle.
Sixty patients with advanced GI cancers were enrolled in a Phase I/II trial.

[7] = test system: diverse metastatic cancers; assay: Phase I/II clinical trial of IMMU-132 (Example 8): response and TTP; assay type: in vivo, human
Rad51 [8] = assay: Rad51 levels by Western blot in cells exposed to IMMU-132; assay type: cell-based, human; details: for increase in Rad51 level: MDA-MB-231, 24-h exposure
Method: as §3

HCC1806 TNBC = HCC1806 TNBC antitumor effect (FIG. 17); assay type: in vivo
[9] = human, in vivo
Capan-1 tumors = assay: Capan-1 xenograft therapy; assay type: in vivo, nude mice; details: day 140; 0.2 mg/kg SN-38 twice weekly x 4 weeks
p21^Waf1/Cip1 = assay: p21Waf1/Cip1 expression in tumor cells; assay type: cell-based, human
Text: as §1

Calu-3 tumors = assay: Calu-3 xenograft therapy; assay type: in vivo, nude mice; details: 0.4 mg/kg SN-38; tumor-free until day 147
[10] = Tolerability in Cynomolgus monkeys; assay type: in vivo, Cynomolgus monkeys (Macaca fascicularis)
[11] = test system: BxPC3 human pancreatic carcinoma; details: FIG. 2
[12] = mouse, in vivo
[13] = human, in vivo; remark: listed apart in the source
[14] = Tolerability in Swiss-Webster mice; details: normal mice; 1,500 mg/kg of the conjugate
[15] = day 73, IMMU-132 250 μg (alone twice weekly, in combination weekly)

## CCc1c2c(nc3ccc(O)cc13)-c1cc3c(c(=O)n1C2)COC(=O)[C@]3(O)CC [SN-38, reference compound]
p53
  exposure time at which upregulation of p53 was evident: 48 h
[1]
  cleavage of PARP: evident

## N.N.O=C([O-])C1(C(=O)[O-])CCC1.[Pt+2] [carboplatin, reference compound]
[2]; day 41 (therapy day 14)
  mean tumor volume: 0.602±0.224 cm^3

## N.N.[Cl][Pt][Cl] [cisplatinum, reference compound]
[2]; [15]
  mean tumor volume: 0.758±0.240 cm^3

## CCc1c2c(nc3ccc(OC(=O)N4CCC(N5CCCCC5)CC4)cc13)-c1cc3c(c(=O)n1C2)COC(=O)[C@]3(O)CC [irinotecan, reference compound]
[3]
  antitumor effect vs specific hRS7-SN-38 conjugate: provided the same antitumor effects
MDA-MB-231 tumors; 40 mg/kg q2dx5
  median survival time: 26.5 days
C13 tumors; 40 mg/kg q2dx5
  median survival time: 35 days
C13 tumors
  median survival time (MST): 35 days
C39 tumors
  median survival time (MST): 28 days
[4]
  antitumor effects: significant antitumor effects
Rad51 [5]
  Rad51 in tumors from treated mice: up-regulation of Rad51 within 24 h
[6]
  conversion rate to SN-38: greater than 50%

## IMMU-132
Advanced GI cancers; 3 with CT assessment
  gastric cancer patients with SD: 3
Advanced GI cancers; 8 with CT assessment
  esophageal cancer patients with PR: 1
  esophageal cancer patients with SD: 4
Advanced GI cancers; 15 treated (5 at 8, 7 at 10, 3 at 12 mg/kg)
  pancreatic cancer patients with SD as best response: 7
Advanced GI cancers; 29 CRC patients
  CRC patients with SD as best response by RECIST: 14
Advanced GI cancers; 29 CRC patients (9 at 10 mg/kg, 20 at 8 mg/kg)
  CRC patients with PR as best response by RECIST: 1
Advanced GI cancers; CRC
  extent of the PR: ~65%
[7]; 8 of 13
  CT-assessable PDC patients with SD: 62%
[7]; 48 patients (excluding PDC)
  patients with disease response: 79%
[2]; 500, 250 or 100 μg i.p. twice weekly for 4 weeks
  antitumor effect compared to saline control: significant antitumor effect
[2]; [15]
  mean tumor volume: 0.745±0.162 cm^3
Rad51 [8]; C13 and C39, 24 h
  Rad51 up-regulation above untreated background: ~2.5 fold
Rad51 [8]; 25 nM SN-38-equivalents
  increase in Rad51 level: greater than 2 fold
Rad51 [8]; 100 nM
  increase in Rad51 level: 4 fold
Rad51 [8]; MDA-MB-231 cells, 24 h
  increase in Rad51 levels: > 2 fold
Rad51 [8]; SK-MES-1, HCC1806
  change in Rad51: Neither SK-MES-1 nor HCC1806 cells demonstrated any increases in Rad51
Rad51 [8]; SK-MES-1 or HCC1806
  effect on Rad51 levels: no effect
MDA-MB-231 tumors; 0.5 mg twice wkly × 4, endpoint tumor >1.0 cm^3
  median survival time (MST): 21 days
MDA-MB-231 tumors; FIG. 19
  effect on tumor growth: no effect on tumor growth
MDA-MB-231 tumors; FIG. 22
  effect on survival: no antitumor effect on survival
MDA-MB-231 tumors; past studies, FIG. 16
  efficacy: neither IMMU-132 nor irinotecan demonstrated any efficacy
C13 tumors; FIG. 20
  effect on tumor growth: effective to inhibit tumor growth
C13 tumors
  median survival time (MST): > 70 days
C39 tumors; FIG. 21
  effect on tumor growth: effective to inhibit tumor growth
C39 tumors
  median survival time (MST): > 70 days
HCC1806 TNBC
  antitumor effects: significant antitumor effects
[4]
  antitumor effects: significant antitumor effects
Rad51 [5]
  Rad51 in tumors from treated mice: up-regulation of Rad51 within 24 h
[9]
  Abdominal pain, Grade 3: 0
  Abdominal pain, Grade 4: 0
  Anemia, Grade 3: 2 (4%)
  Anemia, Grade 4: 0
  Deep vein thrombosis, Grade 3: 1 (2%)
  Deep vein thrombosis, Grade 4: 0
  Diarrhea, Grade 3: 4 (9%)
  Diarrhea, Grade 4: 0
  Dysgeusia, Grade 3: 0
  Dysgeusia, Grade 4: 0
  Fatigue, Grade 3: 4 (9%)
  Fatigue, Grade 4: 0
  Hypokalemia, Grade 3: 1 (2%)
  Hypokalemia, Grade 4: 0
  Nausea, Grade 3: 0
  Nausea, Grade 4: 0
  Neutropenia, Grade 3: 11 (24%)
  Neutropenia, Grade 4: 2 (4%)
  Pyrexia, Grade 3: 0
  Pyrexia, Grade 4: 0
  Vomiting, Grade 3: 1 (2%)
  Vomiting, Grade 4: 0
  WBC Decrease, Grade 3: 1 (2%)
  WBC Decrease, Grade 4: 0
  neutropenia ≥G3: 28%

## hA20-CL2A-SN-38 [reference compound]
Capan-1 tumors
  mice tumor-free at end of study: 20%
[3]
  antitumor effect vs specific hRS7-SN-38 conjugate: provided the same antitumor effects

## hRS7 IgG
p21^Waf1/Cip1
  effect on p21Waf1/Cip1 expression: no appreciable effect
p53
  exposure time at which upregulation of p53 was evident: 48 h

## hRS7-CL2-SN-38
Capan-1 tumors
  mice tumor-free at end of study: 40%
Calu-3 tumors
  time within which all mice were cured: ≤ 28 days

## hRS7-CL2A-SN-38
Capan-1 tumors
  mice tumor-free at end of study: 50%
p21^Waf1/Cip1; Calu-3
  increase in p21Waf1/Cip1 expression over free SN-38: more than 2 fold
p53
  exposure time at which upregulation of p53 was evident: ≤ 24 h
[1]
  cleavage of PARP: evident
[10]; 2×0.96 mg SN-38/kg, transient decreases
  blood count data: values did not fall below normal ranges
[10]; cynomolgus monkey, in vivo
  human equivalent dose of MTD (2 doses): 0.3-0.6 mg/kg SN-38
[11]
  therapeutic efficacy vs control treatments: better therapeutic efficacy than control treatments
[12]
  AST level: > 298 U/L
  histology at termination: no histologic evidence of tissue damage
[12]; 8 mg/kg
  glucose levels (slightly elevated): 273 to 320 mg/dL
  mice with slightly elevated glucose levels: 5 of 7

## hRS7-SN-38
[10]; cynomolgus monkey, in vivo
  cumulative human equivalent dose tolerated by monkeys: 22 mg/m^2
[10]; only minor, reversible toxicities
  dose tolerated by monkeys: 24 mg SN-38 equivalents/kg
[7]; person with CRC, starting dose 8 mg/kg
  reduction in target lesions at first CT assessment: 37%
[13]
  SN-38 released daily: 50%
  time within which the conjugate cleared from the serum: ≤ 3 days
[14]
  cumulative dose over 1 week without acute toxicity: 24 mg/kg SN-38
